Test results: patent US9833497B2, “Human originated EGF domain proteins and use of the same” (CHENGDU SOURCEBIO LIMITED-LIABILITY COMPANY, priority 2013, dated 2017)

Key:
Format in all cases: cell-based
Enterobacter cloacae = experiment: MIC against Gram-negative bacteria: Enterobacter cloacae; conditions: for MIC / MIC (μg/mL) E. cloacae: E. cloacae
In short: (§1)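 Bacteria grown in LB at 37° C to McFarland 0.5, resuspended and seeded at 5×10^5 CFU/mL in 96-well plates. Purified human EGF-domain proteins two-fold serially diluted, triplicate wells; cultured at 37° C, shaking 175 rpm. MIC = lowest protein concentration with no growth.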

E. coli BL21 = experiment: MIC against Gram-negative bacteria: E. coli BL21; conditions: for MIC / MIC (μg/mL) E. coli BL21: E. coli BL21
In short: as §1

Citrobacter diversus = experiment: MIC against Gram-negative bacteria: Citrobacter diversus; conditions: for MIC / MIC (μg/mL) C. diversus: C. diversus
In short: as §1

Pseudomonas aeruginosa = experiment: MIC against Gram-negative bacteria: Pseudomonas aeruginosa; conditions: for MIC / MIC (μg/mL) P. aeruginosa: P. aeruginosa
In short: as §1

Moraxella catarrhalis = experiment: MIC against Gram-negative bacteria: Moraxella catarrhalis; conditions: for MIC / MIC (μg/mL) M. catarrhalis: M. catarrhalis
In short: as §1

Klebsiella pneumonia = experiment: MIC against Gram-negative bacteria: Klebsiella pneumonia; conditions: for MIC / MIC (μg/mL) K. pneumonia: K. pneumonia
In short: as §1

Aeromonas hydrophila = experiment: MIC against Gram-negative bacteria: Aeromonas hydrophila; conditions: for MIC / MIC (μg/mL) A. hydrophila: A. hydrophila
In short: as §1

Serratia marcescens = experiment: MIC against Gram-negative bacteria: Serratia marcescens; conditions: for MIC / MIC (μg/mL) S. marcescens: S. marcescens
In short: as §1

Proteus mirabilis = experiment: MIC against Gram-negative bacteria: Proteus mirabilis; conditions: for MIC / MIC (μg/mL) P. mirabilis: P. mirabilis
In short: as §1

Proteus vulgaris = experiment: MIC against Gram-negative bacteria: Proteus vulgaris; conditions: for MIC / MIC (μg/mL) P. vulgaris: P. vulgaris
In short: as §1

E. coli DH5α = experiment: Antibacterial activity: MIC and growth curve against E. coli DH5α in 96-well plate; conditions: minimal inhibitory concentration against E. coli DH5α; 96-well plate, 5×10^5 CFU/mL, 37° C., judged after 8 h
In short: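 Log-phase bacteria (OD600 ~0.5) resuspended in LB at 5×10^5 CFU/mL, exposed to recombinant protein at 50, 25, 12.5 μg/mL final in triplicate, 37 °C shaking at 175 rpm. OD600 read every 30 min; MIC is lowest concentration showing no growth.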

[1] = 96-well plate, 5×10^5 CFU/mL, 37° C., 10 h
[2] = 10 h cultivation at 37° C., 5×10^5 CFU/mL
[3] = 10 h cultivation at 37° C., 5×10^5 CFU/mL, two-fold serial dilution

PRT688 (DVDECQLFRDQVCKSGVCVNTAPGYSCYCSNGYYYHTQRLECI; listed as Homo sapiens)
MIC E. cloacae (Enterobacter cloacae; [1]): 12.5 µg/mL
MIC E. coli BL21 (E. coli BL21; [1]): 12.5 µg/mL
MIC C. diversus (Citrobacter diversus; [1]): 50 µg/mL
MIC P. aeruginosa (Pseudomonas aeruginosa; [1]): 25 µg/mL
MIC M. catarrhalis (Moraxella catarrhalis; [1]): 12.5 µg/mL
MIC K. pneumonia (Klebsiella pneumonia; [1]): 50 µg/mL
MIC A. hydrophila (Aeromonas hydrophila; [1]): 25 µg/mL
MIC S. marcescens (Serratia marcescens; [1]): 50 µg/mL
MIC P. mirabilis (Proteus mirabilis; [1]): 50 µg/mL
MIC P. vulgaris (Proteus vulgaris; [1]): 100 µg/mL
MIC (E. coli DH5α): 25 µg/mL

PRT914 (DARTCGSLRCLNGGTCISGPRSPTCLCLGPFTGPECQ; listed as Homo sapiens)
MIC (Enterobacter cloacae; 10 h cultivation at 37° C.): 25 µg/mL
MIC (E. coli BL21; 10 h cultivation at 37° C.): 25 µg/mL
MIC (Citrobacter diversus; 10 h cultivation at 37° C.): 12.5 µg/mL
MIC (Pseudomonas aeruginosa; 10 h cultivation at 37° C.): 12.5 µg/mL
MIC (Moraxella catarrhalis; 10 h cultivation at 37° C.): 12.5 µg/mL
MIC (Klebsiella pneumonia; 10 h cultivation at 37° C.): 12.5 µg/mL
MIC (Aeromonas hydrophila; 10 h cultivation at 37° C.): 12.5 µg/mL
MIC (Serratia marcescens; 10 h cultivation at 37° C.): 12.5 µg/mL
MIC (Proteus mirabilis; 10 h cultivation at 37° C.): 12.5 µg/mL
MIC (Proteus vulgaris; 10 h cultivation at 37° C.): 12.5 µg/mL
MIC (E. coli DH5α): 12.5 µg/mL

PRT956 (NIDDCAFASCTPGSTCIDRVASFSCMCPEGKAGLLCH; listed as Homo sapiens)
MIC (Enterobacter cloacae; 10 h cultivation at 37° C.): 12.5 µg/mL
MIC (E. coli BL21; 10 h cultivation at 37° C.): 12.5 µg/mL
MIC (Citrobacter diversus; 10 h cultivation at 37° C.): 25 µg/mL
MIC (Pseudomonas aeruginosa; 10 h cultivation at 37° C.): 12.5 µg/mL
MIC (Moraxella catarrhalis; 10 h cultivation at 37° C.): 12.5 µg/mL
MIC (Klebsiella pneumonia; 10 h cultivation at 37° C.): 25 µg/mL
MIC (Aeromonas hydrophila; 10 h cultivation at 37° C.): 25 µg/mL
MIC (Serratia marcescens; 10 h cultivation at 37° C.): 25 µg/mL
MIC (Proteus mirabilis; 10 h cultivation at 37° C.): 25 µg/mL
MIC (Proteus vulgaris; 10 h cultivation at 37° C.): 50 µg/mL
MIC (E. coli DH5α): 12.5 µg/mL

PRT1033 (LYVPCAPSPCVNGGTCRQTGDFTFECNCLPETVRRGTE; listed as Homo sapiens)
MIC (Enterobacter cloacae; 10 h cultivation at 37° C.): 50 µg/mL
MIC (E. coli BL21; 10 h cultivation at 37° C.): 12.5 µg/mL
MIC (Citrobacter diversus; 10 h cultivation at 37° C.): 50 µg/mL
MIC (Pseudomonas aeruginosa; 10 h cultivation at 37° C.): 50 µg/mL
MIC (Moraxella catarrhalis; 10 h cultivation at 37° C.): 100 µg/mL
MIC (Klebsiella pneumonia; 10 h cultivation at 37° C.): 25 µg/mL
MIC (Aeromonas hydrophila; 10 h cultivation at 37° C.): 12.5 µg/mL
MIC (Serratia marcescens; 10 h cultivation at 37° C.): 50 µg/mL
MIC (Proteus mirabilis; 10 h cultivation at 37° C.): 50 µg/mL
MIC (Proteus vulgaris; 10 h cultivation at 37° C.): 25 µg/mL
MIC (E. coli DH5α): 50 µg/mL

PRT156 (DINECDSNPCHHGGSCLDQPNGYNCHCPHGWVGANCE; listed as Homo sapiens)
MIC (μg/mL) E. cloacae (Enterobacter cloacae; [2]): 12.5 µg/mL
MIC (μg/mL) E. coli BL21 (E. coli BL21; [2]): 12.5 µg/mL
MIC (μg/mL) C. diversus (Citrobacter diversus; [2]): 12.5 µg/mL
MIC (μg/mL) P. aeruginosa (Pseudomonas aeruginosa; [2]): 12.5 µg/mL
MIC (μg/mL) M. catarrhalis (Moraxella catarrhalis; [2]): 50 µg/mL
MIC (μg/mL) K. pneumonia (Klebsiella pneumonia; [2]): 25 µg/mL
MIC (μg/mL) A. hydrophila (Aeromonas hydrophila; [2]): 25 µg/mL
MIC (μg/mL) S. marcescens (Serratia marcescens; [2]): 50 µg/mL
MIC (μg/mL) P. mirabilis (Proteus mirabilis; [2]): 12.5 µg/mL
MIC (μg/mL) P. vulgaris (Proteus vulgaris; [2]): 50 µg/mL
MIC (E. coli DH5α): 25 µg/mL

PRT751 (LCATGDHDCEQVCISSPGSYTCACHEGFTLNSDGKTCN; listed as Homo sapiens)
MIC (μg/mL) E. cloacae (Enterobacter cloacae; [2]): 50 µg/mL
MIC (μg/mL) E. coli BL21 (E. coli BL21; [2]): 25 µg/mL
MIC (μg/mL) C. diversus (Citrobacter diversus; [2]): 12.5 µg/mL
MIC (μg/mL) P. aeruginosa (Pseudomonas aeruginosa; [2]): 50 µg/mL
MIC (μg/mL) M. catarrhalis (Moraxella catarrhalis; [2]): 25 µg/mL
MIC (μg/mL) K. pneumonia (Klebsiella pneumonia; [2]): 12.5 µg/mL
MIC (μg/mL) A. hydrophila (Aeromonas hydrophila; [2]): 25 µg/mL
MIC (μg/mL) S. marcescens (Serratia marcescens; [2]): 12.5 µg/mL
MIC (μg/mL) P. mirabilis (Proteus mirabilis; [2]): 50 µg/mL
MIC (μg/mL) P. vulgaris (Proteus vulgaris; [2]): 25 µg/mL
MIC (E. coli DH5α): 12.5 µg/mL

PRT698 (DVDECARSPPPCTYGRCENTEGSFQCVCPMGFQPNTAGSECE; listed as Homo sapiens)
MIC E. cloacae (Enterobacter cloacae; [1]): 25 µg/mL
MIC E. coli BL21 (E. coli BL21; [1]): 25 µg/mL
MIC C. diversus (Citrobacter diversus; [1]): 25 µg/mL
MIC P. aeruginosa (Pseudomonas aeruginosa; [1]): 12.5 µg/mL
MIC M. catarrhalis (Moraxella catarrhalis; [1]): 50 µg/mL
MIC K. pneumonia (Klebsiella pneumonia; [1]): 50 µg/mL
MIC A. hydrophila (Aeromonas hydrophila; [1]): 12.5 µg/mL
MIC S. marcescens (Serratia marcescens; [1]): 12.5 µg/mL
MIC P. mirabilis (Proteus mirabilis; [1]): 25 µg/mL
MIC P. vulgaris (Proteus vulgaris; [1]): 25 µg/mL
MIC (E. coli DH5α): 50 µg/mL

PRT1134 (NVDDCLMRPCANGATCLDGINRFSCLCPEGFAGRFCT; listed as Homo sapiens)
MIC E. cloacae (Enterobacter cloacae; [3]): 12.5 µg/mL
MIC E. coli BL21 (E. coli BL21; [3]): 25 µg/mL
MIC C. diversus (Citrobacter diversus; [3]): 12.5 µg/mL
MIC P. aeruginosa (Pseudomonas aeruginosa; [3]): 12.5 µg/mL
MIC M. catarrhalis (Moraxella catarrhalis; [3]): 12.5 µg/mL
MIC K. pneumonia (Klebsiella pneumonia; [3]): 25 µg/mL
MIC A. hydrophila (Aeromonas hydrophila; [3]): 12.5 µg/mL
MIC S. marcescens (Serratia marcescens; [3]): 12.5 µg/mL
MIC P. mirabilis (Proteus mirabilis; [3]): 12.5 µg/mL
MIC P. vulgaris (Proteus vulgaris; [3]): 50 µg/mL
MIC (E. coli DH5α): 12.5 µg/mL

PRT437 (DEDECAAGNPCSHSCHNAMGTYYCSCPKGLTIAADGRTCQ; listed as Homo sapiens)
MIC (Enterobacter cloacae; [2]): 12.5 µg/mL
MIC (E. coli BL21; [2]): 12.5 µg/mL
MIC (Citrobacter diversus; [2]): 50 µg/mL
MIC (Pseudomonas aeruginosa; [2]): 50 µg/mL
MIC (Moraxella catarrhalis; [2]): 25 µg/mL
MIC (Klebsiella pneumonia; [2]): 25 µg/mL
MIC (Aeromonas hydrophila; [2]): 25 µg/mL
MIC (Serratia marcescens; [2]): 50 µg/mL
MIC (Proteus mirabilis; [2]): 12.5 µg/mL
MIC (Proteus vulgaris; [2]): 25 µg/mL
MIC (E. coli DH5α): 50 µg/mL

PRT921 (NIDDCASAACFHGATCHDRVASFYCECPHGRTGLLCH; listed as Homo sapiens)
MIC (Enterobacter cloacae; 10 h cultivation at 37° C.): 12.5 µg/mL
MIC (E. coli BL21; 10 h cultivation at 37° C.): 12.5 µg/mL
MIC (Citrobacter diversus; 10 h cultivation at 37° C.): 12.5 µg/mL
MIC (Pseudomonas aeruginosa; 10 h cultivation at 37° C.): 25 µg/mL
MIC (Moraxella catarrhalis; 10 h cultivation at 37° C.): 25 µg/mL
MIC (Klebsiella pneumonia; 10 h cultivation at 37° C.): 12.5 µg/mL
MIC (Aeromonas hydrophila; 10 h cultivation at 37° C.): 25 µg/mL
MIC (Serratia marcescens; 10 h cultivation at 37° C.): 12.5 µg/mL
MIC (Proteus mirabilis; 10 h cultivation at 37° C.): 12.5 µg/mL
MIC (Proteus vulgaris; 10 h cultivation at 37° C.): 25 µg/mL
MIC (E. coli DH5α): 12.5 µg/mL

PRT633 (TKPSCVPPCQNGGMCLRPQLCVCKPGTKGKACE; listed as Homo sapiens)
MIC E. cloacae (Enterobacter cloacae; [1]): 12.5 µg/mL
MIC E. coli BL21 (E. coli BL21; [1]): 50 µg/mL
MIC C. diversus (Citrobacter diversus; [1]): 12.5 µg/mL
MIC P. aeruginosa (Pseudomonas aeruginosa; [1]): 12.5 µg/mL
MIC M. catarrhalis (Moraxella catarrhalis; [1]): 50 µg/mL
MIC K. pneumonia (Klebsiella pneumonia; [1]): 50 µg/mL
MIC A. hydrophila (Aeromonas hydrophila; [1]): 50 µg/mL
MIC S. marcescens (Serratia marcescens; [1]): 25 µg/mL
MIC P. mirabilis (Proteus mirabilis; [1]): 12.5 µg/mL
MIC P. vulgaris (Proteus vulgaris; [1]): 50 µg/mL
MIC (E. coli DH5α): 12.5 µg/mL
